Assay results taken from ChEMBL document CHEMBL1150484, “Structure-based design of achiral anthranilamides as P2/P2 surrogates for symmetry-based HIV protease inhibitors: design, synthesis, X-ray structure, enzyme inhibition and antiviral activity” (Bioorg Med Chem Lett, 1995).

What was measured:
[1] = Partition coefficient (logP); assay type: physicochemical; conditions: octanol/water
[2] = Tested for cytotoxicity in HIV-1 infected human T-lymphocyte cell culture; assay type: functional; conditions: read-out: TC50 (the source's name)
CCRF-CEM = experiment: Concentration required to produce 50 percent inhibition of HIV-1 infection in CEM cells; assay type: functional, cell-based; conditions: Homo sapiens
[3] = molecular target: T1, Human immunodeficiency virus type 1 protease (Human immunodeficiency virus 1, UniProt Q72874); experiment: Tested for inhibition of HIV protease using fluorogenic substrate; insoluble
[4] = molecular target: T1, Human immunodeficiency virus type 1 protease; experiment: Tested for inhibition of HIV protease using fluorogenic substrate

| Ki [3] | logP [1] | Structure (SMILES) | logP ([1]; read-out: logP) | CC50 [2] [nM] | EC50 (CCRF-CEM) [nM] | Ki [4] [nM] |
| --- | --- | --- | --- | --- | --- | --- |
| – | – | O=C(Nc1ccccc1C(=O)N[C@@H](Cc1ccccc1)C[C@H](O)[C@H](Cc1ccccc1)NC(=O)c1ccccc1NC(=O)OCc1ccccc1)OCc1ccccc1 | 8.28 | – | – | – |
| – | – | O=C(Nc1ncccc1C(=O)N[C@@H](Cc1ccccc1)[C@H](O)[C@H](O)[C@H](Cc1ccccc1)NC(=O)c1cccnc1NC(=O)OCc1ccccc1)OCc1ccccc1 | 7.87 | – | – | – |
| – | – | O=C(Nc1ccccc1C(=O)N[C@@H](Cc1ccccc1)[C@H](O)[C@H](O)[C@H](Cc1ccccc1)NC(=O)c1ccccc1NC(=O)OCc1ccccn1)OCc1ccccn1 | 6.49 | 35000 | 13 | – |
| – | – | O=C(Nc1ccccc1C(=O)N[C@@H](Cc1ccccc1)[C@H](O)[C@H](O)[C@H](Cc1ccccc1)NC(=O)c1ccccc1NC(=O)OCc1ccccc1)OCc1ccccc1 | 8.16 | – | > 100000 | – |
| Insoluble | – | CCOC(=O)Nc1ccccc1C(=O)N[C@@H](Cc1ccccc1)[C@H](O)[C@H](O)[C@H](Cc1ccccc1)NC(=O)c1ccccc1NC(=O)OCC | 6.14 | – | – | – |
| – | – | O=CNc1ccccc1C(=O)N[C@@H](Cc1ccccc1)[C@H](O)[C@H](O)[C@H](Cc1ccccc1)NC(=O)c1ccccc1NC=O | 4.89 | – | 900 | 1.2 |
| – | – | O=C(Nc1ccccc1C(=O)N[C@@H](Cc1ccccc1)C[C@H](O)[C@H](Cc1ccccc1)NC(=O)c1ccccc1NC(=O)OCc1ccccn1)OCc1ccccn1 | 6.61 | > 50000 | 56 | 0.07 |
| – | – | CC(=O)Nc1ccccc1C(=O)N[C@@H](Cc1ccccc1)[C@H](O)[C@H](O)[C@H](Cc1ccccc1)NC(=O)c1ccccc1NC(C)=O | 4.32 | – | > 100000 | – |
| – | 9.24 | Cc1cccc(C(=O)N[C@@H](Cc2ccccc2)[C@H](O)[C@H](O)[C@H](Cc2ccccc2)NC(=O)c2cccc(C)c2NC(=O)OCc2ccccc2)c1NC(=O)OCc1ccccc1 | – | – | – | – |
| – | – | O=C(CO)Nc1ccccc1C(=O)N[C@@H](Cc1ccccc1)[C@H](O)[C@H](O)[C@H](Cc1ccccc1)NC(=O)c1ccccc1NC(=O)CO | 2.52 | – | 60000 | 20 |
| – | 9.34 | O=C(Nc1c(Cl)cccc1C(=O)N[C@@H](Cc1ccccc1)[C@H](O)[C@H](O)[C@H](Cc1ccccc1)NC(=O)c1cccc(Cl)c1NC(=O)OCc1ccccc1)OCc1ccccc1 | – | – | – | – |
| – | – | Cc1nccnc1C(=O)Nc1ccccc1C(=O)N[C@@H](Cc1ccccc1)[C@H](O)[C@H](O)[C@H](Cc1ccccc1)NC(=O)c1ccccc1NC(=O)c1nccnc1C | 5.66 | – | – | > 10000 |
| – | – | O=C(Nc1c(O)cccc1C(=O)N[C@@H](Cc1ccccc1)[C@H](O)[C@H](O)[C@H](Cc1ccccc1)NC(=O)c1cccc(O)c1NC(=O)OCc1ccccc1)OCc1ccccc1 | 7.96 | – | – | – |
| – | – | O=C(Nc1ccccc1C(=O)N[C@@H](Cc1ccccc1)C[C@H](O)[C@H](Cc1ccccc1)NC(=O)c1ccccc1NC(=O)OCc1cccnc1)OCc1cccnc1 | 5.86 | – | 140 | 0.26 |
| – | – | O=C(Nc1ccccc1C(=O)N[C@@H](Cc1ccccc1)C[C@H](O)[C@H](Cc1ccccc1)NC(=O)c1ccccc1NC(=O)OCc1ccncc1)OCc1ccncc1 | 5.39 | – | 2600 | 0.45 |
| – | – | O=C(COCc1ccccc1)Nc1ccccc1C(=O)N[C@@H](Cc1ccccc1)[C@H](O)[C@H](O)[C@H](Cc1ccccc1)NC(=O)c1ccccc1NC(=O)COCc1ccccc1 | 6.91 | – | – | > 10000 |
